Read-outs that look alike come from different tables or passages of the source. Bounds are passed on as bounds.

Assay [1] has as its target T1, FGFR4/KLB (Fc-fused human FGF-R4 with beta-klotho) (Homo sapiens, UniProt P22455).
T1 sequence (P22455 22-369 limits assumed): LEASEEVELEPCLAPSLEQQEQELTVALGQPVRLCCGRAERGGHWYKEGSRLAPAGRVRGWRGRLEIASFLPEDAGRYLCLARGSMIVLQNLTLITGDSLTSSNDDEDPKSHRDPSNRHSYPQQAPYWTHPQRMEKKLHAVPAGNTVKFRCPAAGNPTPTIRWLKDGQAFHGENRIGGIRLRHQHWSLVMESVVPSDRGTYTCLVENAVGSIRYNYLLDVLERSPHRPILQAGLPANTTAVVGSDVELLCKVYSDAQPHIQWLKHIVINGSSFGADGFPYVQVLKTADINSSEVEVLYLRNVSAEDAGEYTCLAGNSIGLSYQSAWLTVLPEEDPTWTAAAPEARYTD
In words: AlphaScreen FGF21 competitive binding assay. (In general: In Alpha technology, singlet oxygen from a donor bead excites a nearby acceptor bead.)

For assay [2], the target named is T2, FGF-R4 ECD (Homo sapiens, UniProt P22455).
T2 construct: DNA constructs for the extracellular domain (ECD) of human FGF-; HPC4 (C); made in house; host or cells: HEK 293-6E
T2 sequence (P22455 22-369 limits assumed): T1 sequence (P22455 22-369 limits assumed)
In words: multi-concentration BLI of purified peptides. To be noted: purified NNK library peptides. Format: binding. In short, it runs like this: (§1)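 Streptavidin biosensors carrying biotinylated FGF receptor ECD were immersed in peptide (~1 μM for crude single-point runs, a concentration series for purified peptides) and then in peptide-free buffer. KD was obtained by fitting the BLI association and dissociation curves.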

In assay [3] the target is T3, FGFR3c/BKL (Fc-fused human FGF-R3alpha(IIIc) with beta-klotho) (Homo sapiens, UniProt P22607).
T3 sequence (P22607 23-375 limits assumed): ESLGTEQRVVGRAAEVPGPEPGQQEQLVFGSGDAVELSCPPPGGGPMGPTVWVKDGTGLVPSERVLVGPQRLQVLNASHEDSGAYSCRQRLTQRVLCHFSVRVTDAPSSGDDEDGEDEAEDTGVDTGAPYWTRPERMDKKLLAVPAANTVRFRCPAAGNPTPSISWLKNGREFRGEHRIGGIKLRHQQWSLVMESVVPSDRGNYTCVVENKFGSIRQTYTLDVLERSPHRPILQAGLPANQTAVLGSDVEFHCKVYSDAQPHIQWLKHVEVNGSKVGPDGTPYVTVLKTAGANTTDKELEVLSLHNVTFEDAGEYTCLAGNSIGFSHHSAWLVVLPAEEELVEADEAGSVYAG
Briefly: AlphaScreen FGF21 competitive binding assay.
Protocol: Alphascreen binding assay
The competitive binding assay was carried out according to the methods detailed in Hansen. et al using
AlphaScreen.3 All reagents and samples were prepared in assay buffer: 40mM Hepes, 140mM NaCl, 1mM
CaCl2, 0,05% Tween20, pH=7.5, 0.1% BSA. In brief, recombinant human beta-klotho (R&D Systems) was
preincubated for 60 min with the ectodomain, either Fc-fused human FGF-R1alpha(IIIc), FGF-R3alpha(IIIc)
or FGF-R4 (R&D Systems), and the mixture was added to the test peptides in OptiPlate™ (PerkinElmer).
Biotinylated FGF21 and heparin were further added to each well. AlphaScreen bead mix (1:1 mix of Protein
A acceptor beads/ streptavidin-coated donor beads, PerkinElmer) were added to each well incubated
overnight at RT in the dark, and measured on a plate reader (Envision). Assays were carried out in triplicates
with concentrations ranging from 3, 10, 30, 100, 300 ,1000 and 3000 nM of peptide. No peptide control
(media only) was used as a negative control, and unlabeled FGF21 and FGF1 as positive control.
competing with biotinylated natural FGF21 ligand.

The target in assay [4] is T4, FGF-R3C ECD (Homo sapiens, UniProt P22607).
T4 sequence (P22607 23-375 limits assumed): T3 sequence (P22607 23-375 limits assumed)
Briefly: biochemical. In short, it runs like this:
as §1

Assay [5] addresses T5, FGF-R1C ECD (Homo sapiens, UniProt P11362).
T5 sequence (P11362 22-376 limits assumed): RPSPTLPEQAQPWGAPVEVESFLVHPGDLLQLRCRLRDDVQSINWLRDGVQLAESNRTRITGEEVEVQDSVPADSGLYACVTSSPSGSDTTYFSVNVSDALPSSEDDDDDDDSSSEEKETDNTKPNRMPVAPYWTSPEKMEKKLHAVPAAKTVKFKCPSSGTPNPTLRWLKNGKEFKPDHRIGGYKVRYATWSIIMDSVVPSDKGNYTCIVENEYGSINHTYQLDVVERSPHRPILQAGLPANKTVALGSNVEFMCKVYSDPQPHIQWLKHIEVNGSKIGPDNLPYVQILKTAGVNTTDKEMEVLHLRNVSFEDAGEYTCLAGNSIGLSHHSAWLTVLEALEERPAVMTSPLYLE
Briefly: biochemical. In short, it runs like this:
as §1

Assay [6] concerns the target T6, FGFR1c/KLB (Fc-fused human FGF-R1alpha(IIIc) with beta-klotho) (Homo sapiens, UniProt P11362).
T6 sequence (P11362 22-376 limits assumed): T5 sequence (P11362 22-376 limits assumed)
Briefly: AlphaScreen FGF21 competitive binding assay.

The target of assay [7] is T2, FGF-R4 ECD. In words: single concentration BLI of crude peptides. The class given is binding. The note with it: crude NNK peptides, single concentration BLI (Table S3); read-out: KD (4). In short, it runs like this: (§2)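 Biotinylated FGF-R ECD on streptavidin biosensors was dipped into ~1 μM crude peptide in PBS pH7.4 with 0.05% Tween-20 and 0.01% BSA for association, then into buffer for dissociation, and followed by BLI. Fitted KD values were adjusted for peptide concentration measured by UPLC-CAD.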

The target of assay [8] is T4, FGF-R3C ECD. In words: biochemical. Format: binding. Details: DNA constructs for the extracellular domain (ECD) of human FGF-; HPC4 (C); made in house; host or cells: HEK 293-6E. In short, it runs like this:
as §2

The target in assay [9] is T5, FGF-R1C ECD. Briefly: biochemical. Details: DNA constructs for the extracellular domain (ECD) of human FGF-; HPC4 (C); made in house; host or cells: HEK 293-6E. The class given is binding. In short, it runs like this:
as §2

The mark [10] stands for this setting: purified NNK library peptides, multi-concentration BLI.

Take `CC[C@H](C)[C@@H]1NC(=O)[C@@H](NC(=O)[C@@H](N)CCSC)CSSC[C@@H](C(=O)NCC(=O)N[C@@H](CO)C(=O)NCC(=O)N[C@@H](CO)C(=O)N[C@@H](CC(=O)O)C(=O)N[C@@H](Cc2ccc(O)cc2)C(=O)N[C@@H](CCCCN)C(=O)N[C@@H](CC(=O)O)C(=O)N[C@@H](CC(=O)O)C(=O)N[C@@H](CC(=O)O)C(=O)N[C@@H](CC(=O)O)C(=O)N[C@@H](CCCCN)C(N)=O)NC(=O)[C@@H]2CCCN2C(=O)[C@H]([C@@H](C)CC)NC(=O)[C@H](Cc2ccccc2)NC(=O)[C@@H]2CCCN2C(=O)[C@H](CCSC)NC(=O)[C@H](Cc2c[nH]cn2)NC(=O)[C@H]([C@@H](C)CC)NC(=O)[C@H](CC(=O)O)NC(=O)[C@H](Cc2ccccc2)NC1=O` [3C.2]: the IC50 in assay [1], in [3] and in assay [6] was above 1000 nM in each case. The Kd (in general, the free concentration of one partner at which half of the binding sites on the other are occupied at equilibrium, for simple one-to-one binding) is above 1000 nM on FGF-R4 ECD [2]; above 1000 nM on FGF-R3C ECD [4]; above 1000 nM at FGF-R1C ECD [5]; above 10000 nM on FGF-R4 ECD [7]; above 10000 nM on FGF-R3C ECD [8]; above 10000 nM at FGF-R1C ECD [9]. For the same compound, the “R3C KD (nM)” value at FGF-R3C ECD [4] (setting [10]) is “did not show any binding”.

Turning to `CC[C@H](C)[C@@H]1NC(=O)[C@H](Cc2ccccc2)NC(=O)[C@@H]2CCCN2C(=O)[C@H](C(C)C)NC(=O)[C@H](Cc2ccccc2)NC(=O)[C@H](CO)NC(=O)[C@H](CC(=O)O)NC(=O)[C@H](Cc2ccccc2)NC(=O)[C@H](CC(C)C)NC(=O)[C@@H](NC(=O)[C@@H](N)CCSC)CSSC[C@@H](C(=O)NCC(=O)N[C@@H](CO)C(=O)NCC(=O)N[C@@H](CO)C(=O)N[C@@H](CC(=O)O)C(=O)N[C@@H](Cc2ccc(O)cc2)C(=O)N[C@@H](CCCCN)C(=O)N[C@@H](CC(=O)O)C(=O)N[C@@H](CC(=O)O)C(=O)N[C@@H](CC(=O)O)C(=O)N[C@@H](CC(=O)O)C(=O)N[C@@H](CCCCN)C(N)=O)NC(=O)[C@H](Cc2ccccc2)NC1=O` [3C.3], the IC50 (usually the point on the concentration scale where inhibition reaches its midpoint) in [1] (read-out: R4 competitive IC50, purified peptides, Alphascreen vs biotinylated FGF21) is above 1000 nM; in assay [3] (read-out: R3C competitive IC50, purified peptides, Alphascreen vs biotinylated FGF21) it was 95 nM; in [6] (read-out: R1C competitive IC50, purified peptides, Alphascreen vs biotinylated FGF21), above 1000 nM. Also, the Kd at FGF-R4 ECD [2] is above 1000 nM; on FGF-R3C ECD [4] (read-out: R3C KD, purified NNK library peptides, multi-concentration BLI), 21 nM; on FGF-R1C ECD [5] (read-out: R1C KD, purified NNK library peptides, multi-concentration BLI), above 1000 nM; at FGF-R4 ECD [7], above 10000 nM; at FGF-R3C ECD [8] (read-out: KD(3C)) it was 29 nM; at FGF-R1C ECD [9] (read-out: KD (1C)), above 10000 nM.

Take `CSCC[C@H](NC(C)=O)C(=O)N[C@H]1CSSC[C@@H](C(=O)NCC(=O)N[C@@H](CO)C(=O)NCC(=O)N[C@@H](CO)C(=O)N[C@@H](CC(=O)O)C(=O)N[C@@H](Cc2ccc(O)cc2)C(=O)N[C@@H](CCCCN)C(=O)N[C@@H](CC(=O)O)C(=O)N[C@@H](CC(=O)O)C(=O)N[C@@H](CC(=O)O)C(=O)N[C@@H](CC(=O)O)C(=O)N[C@@H](CCCCN)C(N)=O)NC(=O)[C@H](CO)NC(=O)[C@H](Cc2c[nH]cn2)NC(=O)[C@H](Cc2c[nH]c3ccccc23)NC(=O)[C@H](Cc2c[nH]cn2)NC(=O)[C@H](CCCNC(=N)N)NC(=O)[C@H]([C@@H](C)O)NC(=O)[C@H](Cc2ccc(O)cc2)NC(=O)[C@H](CC(C)C)NC(=O)[C@H](CC(N)=O)NC(=O)[C@H](Cc2c[nH]c3ccccc23)NC(=O)[C@H](CCC(N)=O)NC(=O)[C@H](CCC(N)=O)NC1=O` [3C.4]: the results for the IC50 in [1], in assay [3] and in [6] were above 1000 nM, 71 nM and above 1000 nM, respectively. The Kd is above 1000 nM at FGF-R4 ECD [2]; above 1000 nM on FGF-R3C ECD [4]; above 1000 nM at FGF-R1C ECD [5]; above 10000 nM on FGF-R4 ECD [7]; above 10000 nM at FGF-R3C ECD [8]; above 10000 nM at FGF-R1C ECD [9]. In addition, in assay [3] (purified peptides, Alphascreen vs biotinylated FGF21), the “R3C competitive IC50 (nM)” value was “efficiently competes with FGF21”. The “R3C KD (nM)” value on FGF-R3C ECD [4] (setting [10]) is “could not detect any binding”.

Turning to `CC[C@H](C)[C@@H]1NC(=O)[C@H](C(C)C)NC(=O)[C@H](Cc2c[nH]cn2)NC(=O)[C@@H](NC(=O)[C@H](CCSC)NC(C)=O)CSSC[C@@H](C(=O)NCC(=O)N[C@@H](CO)C(=O)NCC(=O)N[C@@H](CO)C(=O)N[C@@H](CC(=O)O)C(=O)N[C@@H](Cc2ccc(O)cc2)C(=O)N[C@@H](CCCCN)C(=O)N[C@@H](CC(=O)O)C(=O)N[C@@H](CC(=O)O)C(=O)N[C@@H](CC(=O)O)C(=O)N[C@@H](CC(=O)O)C(=O)N[C@@H](CCCCN)C(N)=O)NC(=O)[C@H](Cc2ccc(O)cc2)NC(=O)[C@H](CCCNC(=N)N)NC(=O)[C@H](Cc2c[nH]c3ccccc23)NC(=O)[C@H](CO)NC(=O)[C@H](CCCNC(=N)N)NC(=O)[C@H](Cc2c[nH]c3ccccc23)NC(=O)[C@H](CC(C)C)NC1=O` [4.2], the IC50 in assay [1] is 682 nM; in [3], above 1000 nM; in assay [6] it was above 1000 nM. For the same compound, the Kd on FGF-R4 ECD [2] is 51 nM; at FGF-R3C ECD [4] it was above 1000 nM; at FGF-R1C ECD [5], above 1000 nM; at FGF-R4 ECD [7], 93 nM; on FGF-R3C ECD [8], above 10000 nM; on FGF-R1C ECD [9], above 10000 nM.

For `CSCC[C@H](NC(C)=O)C(=O)N[C@H]1CSSC[C@@H](C(=O)NCC(=O)N[C@@H](CO)C(=O)NCC(=O)N[C@@H](CO)C(=O)N[C@@H](CC(=O)O)C(=O)N[C@@H](Cc2ccc(O)cc2)C(=O)N[C@@H](CCCCN)C(=O)N[C@@H](CC(=O)O)C(=O)N[C@@H](CC(=O)O)C(=O)N[C@@H](CC(=O)O)C(=O)N[C@@H](CC(=O)O)C(=O)N[C@@H](CCCCN)C(N)=O)NC(=O)[C@H](CO)NC(=O)[C@H](CCCNC(=N)N)NC(=O)[C@H](Cc2ccccc2)NC(=O)[C@H](C)NC(=O)[C@H](CC(C)C)NC(=O)[C@H](Cc2ccc(O)cc2)NC(=O)[C@H](Cc2ccc(O)cc2)NC(=O)[C@H](C)NC(=O)[C@H](CC(C)C)NC(=O)[C@H](Cc2c[nH]cn2)NC1=O` [4.3], the figures for the IC50 in assay [1], in [3] and in [6] were 508 nM, above 1000 nM and above 1000 nM, respectively. Besides, the dissociation constant (Kd) at FGF-R4 ECD [2] was 86 nM; at FGF-R3C ECD [4], above 1000 nM; at FGF-R1C ECD [5], above 1000 nM; at FGF-R4 ECD [7], 58 nM; at FGF-R3C ECD [8], above 10000 nM; at FGF-R1C ECD [9], above 10000 nM.

The values above are taken from publication PMC10763615, “Identification and engineering of potent cyclic peptides with selective or promiscuous binding through biochemical profiling and bioinformatic data analysis” (RSC Chemical Biology, 2023).
